# Laboratory results as given in paper PMC9765450, “Structures of Fission Yeast Inositol Pyrophosphate Kinase Asp1 in Ligand-Free, Substrate-Bound, and Product-Bound States” (mBio, 2022).
# Biological target: T1, Asp1-(1-385) kinase domain (Schizosaccharomyces pombe, UniProt O74429, E248Q)
# T1 construct: N-terminal kinase domain, residues 1-385
# Assay: PAGE kinase assay, toluidine blue staining
# Type: biochemical
# Conditions: 2 mM GTP, 0.5 mM 5-IP7, 5 mM MgCl2, pH 6.2, 37 °C; phosphate donor
smiles,measurement,value
Nc1nc2c(ncn2[C@@H]2O[C@H](COP(=O)(O)OP(=O)(O)OP(=O)(O)O)[C@@H](O)[C@H]2O)c(=O)[nH]1 [GTP],"PAGE kinase assay, toluidine blue staining",elicited a gain of function whereby GTP was enabled as a phosphate donor
